Results as given in publication PMC8145107 (Pharmaceutics, 2021).

Legend:
[1] = Liver microsomal phase I stability assay (rat); format: in vitro ADME; conditions: rat liver microsomes
[2] = target: CYP2C9 (Homo sapiens, UniProt P11712); test: CYP450 enzyme inhibition, 2C9; format: in vitro ADME; conditions: compound 0.05~50 μM; read-out: IC50 against CYP450 isotype 2C9
Experimental: Permeability was evaluated with a parallel artificial membrane permeability (PAMPA) assay using an artificially generated lipid-infused membrane.

[3] = target: CYP450 2D6 (Homo sapiens, UniProt P10635); test: CYP450 enzyme inhibition, 2D6; format: in vitro ADME; conditions: compound 0.05~50 μM; read-out: IC50 against CYP450 isotype 2D6
[4] = test system: NCI-H460 cells; test: MTT viability assay, NCI-H460; format: cell-based, human; conditions: Homo sapiens, 24 h
Experimental: (§1) The human NSCLC cell lines of NCI-H460, A549, HCC827, PC9, NCI-H1650, and NCI-H1975 were obtained from the American Type Culture Collection (Rockville, MD, USA). Cells were cultured in RPMI 1640 medium containing 10% FBS, 2 mmol/L L-glutamine, and 100 units/mL of penicillin and streptomycin and maintained at 37 °C in a humidified incubator containing 5% CO2.
(§2) Cell viability against gefitinib-, cisplatin-, and NA49-induced toxicity was determined using an MTT (Amersham Pharmacia Biotech) assay in 96-well plates. […] Next, cells were incubated with 100 µL of 5 mg/mL 3-(4,5-dimethylthiazol-2-yl)-2,5-diphenyltetrazolium bromide (Sigma Aldrich, M5655) for 2 h. After the MTT mixture was removed, 100 µL of DMSO was added to each well, and absorbance at 540 nm was measured using an ELISA plate reader (TECAN, Twinfinite PRO).

[5] = test system: A549 cells; test: MTT viability assay, A549; format: cell-based; conditions: Homo sapiens, 24 h
[6] = test system: HCC827 cells; test: MTT viability assay, HCC827; format: cell-based; conditions: Homo sapiens, 24 h
Experimental: as §1, §2

[7] = test system: PC9 cells; test: MTT viability assay, PC9; format: cell-based; conditions: Homo sapiens, PC-9, 24 h
Experimental: as §1, §2

[8] = test system: NCI-H1650 cells; test: MTT viability assay, NCI-H1650; format: cell-based; conditions: Homo sapiens, 24 h
Experimental: as §1, §2

[9] = test system: NCI-H1975 cells; test: MTT viability assay, NCI-H1975; format: cell-based; conditions: Homo sapiens, 24 h
Experimental: as §1, §2

[10] = test system: NCI-H460 cells; test: Cell death by PI staining / flow cytometry, NCI-H460; format: cell-based, human; conditions: H460, PI staining, CompuSyn
Experimental: (§3) Cells were plated in 6-well culture plates at a density of 1 × 10^5 cells/well. Compounds were applied to the cells immediately after seeding. When cells were harvested, cells were washed once with 1× phosphate-buffered saline (PBS), dissociated using Trypsin-EDTA, and centrifuged at 13,000 rpm for 3 min at 4 °C. Next, 1 mL of 1× PBS was added to wash the pellet again. Finally, 1 mL of 1× PBS and 1 μg/mL of propidium iodide (PI) were added to each polystyrene round-bottom tube. Flow cytometric analysis was performed using a FACS flow cytometer (BD Bioscience). To measure cell death, 10^4 cells were counted, and PI-stained cells were analyzed. FACS analysis in accordance with the manufacturer’s instruction. […]
(§4) Table S1. CI values of NSCLC cell lines.
(§5) Cell line Combination drug NA 10 µM NA 20 µM
(§6) CI values were calculated from the data of percent inhibition of cell death by PI staining. Each CI
(§7) value was analyzed by CompuSyn software. […]

[11] = test system: A549 cells; test: Cell death by PI staining / flow cytometry, A549; format: cell-based, human; conditions: PI staining, CompuSyn
Experimental: as §3, §4, §5, §6, §7

[12] = test system: HCC827 cells; test: Cell death by PI staining / flow cytometry, HCC827; format: cell-based, human; conditions: NA 10 µM + gefitinib 0.01 µM, CompuSyn
Experimental: as §3, §4, §5, §6, §7

[13] = test system: PC9 cells; test: Cell death by PI staining / flow cytometry, PC9; format: cell-based, human; conditions: NA 10 µM + gefitinib 0.01 µM, CompuSyn
Experimental: as §3, §4, §5, §6, §7

[14] = test system: NCI-H1650 cells; test: Cell death by PI staining / flow cytometry, NCI-H1650; format: cell-based, human; conditions: CompuSyn
Experimental: as §3, §4, §5, §6, §7

[15] = test system: NCI-H1975 cells; test: Cell death by PI staining / flow cytometry, NCI-H1975; format: cell-based, human; conditions: NA 10 µM + gefitinib 10 µM, CompuSyn
Experimental: as §3, §4, §5, §6, §7

[16] = test system: T1, HSP27; test: HSP27 cross-linking in NCI-H460 cells (Western blot); format: cell-based, human; conditions: 0-20 μM, 24 h
T1 construct: endogenous in cells; host or cells: NCI-H460
Experimental: For polyacrylamide gel electrophoresis (PAGE) and Western blot (WB) analysis, cells were lysed with radioimmunoprecipitation assay (RIPA) buffer (50 mM Tris-HCl [pH 7.5], 150 mM NaCl, 1% NP-40, 0.1% sodium dodecyl sulfate (SDS), and 1% sodium deoxycholate) supplemented with 1 mM Na3VO4, 1 mM dithiothreitol (DTT), 1 mM phenyl-methyl-sulfonyl fluoride (PMSF), and protease inhibitor cocktail (Calbiochem). The samples were boiled for 5 min, and equal amounts of protein were analyzed by SDS-PAGE. […]
( B) NCI-H460 cells were tr eated with J2 or NA49 (0, 1, 5, 10 and 20 μM) for 24 h, and cell lysates were
detected by Western blot analysis. […]

[17] = test system: NCI-H460 xenograft; test: NCI-H460 tumor xenograft in mice; format: in vivo, BALB/c nude mice; conditions: NA49 20 mg/kg IP every other day + cisplatin 2 mg/kg IP twice a week
Experimental: (§8) NCI-H460 single-cell suspension (1 × 10^6 cells) was injected subcutaneously into the hind legs of 6-week-old BALB/c nude mice (Orientbio, Korea). […] NCI-H1650 single-cell suspension (1 × 10^7 cells) was injected subcutaneously into the hind leg of 6-week-old NOD-SCID mice (Koatech, Korea). When tumors reached a minimal volume of 150 mm^3, xenograft mice were treated 7 times with J2 or NA49 by local regional application with or without gefitinib (5 mg/kg) by IP injection. For this, J2 or NA49 (20 mg/kg) was injected by IP every two days, and gefitinib was injected every three days. Tumor volumes were determined according to the formula (L × l^2)/2, by measuring tumor length (L) and width (l) with a caliper. Tumors were measured every other day and allowed to grow for 15 or 34 days. All procedures for animal experiments were in accordance with the guidelines by the Ewha Woman’s University Institutional Animal Care and Use Committee (IACUC, 18-006), Seoul, Korea.

[18] = test system: NCI-H1650 xenograft; test: NCI-H1650 tumor xenograft in mice; format: in vivo, NOD-SCID mice; conditions: NA49 20 mg/kg IP every other day + Gef 5 mg/kg IP
Experimental: as §8

CYP450 2D6, sequence (P10635 whole entry): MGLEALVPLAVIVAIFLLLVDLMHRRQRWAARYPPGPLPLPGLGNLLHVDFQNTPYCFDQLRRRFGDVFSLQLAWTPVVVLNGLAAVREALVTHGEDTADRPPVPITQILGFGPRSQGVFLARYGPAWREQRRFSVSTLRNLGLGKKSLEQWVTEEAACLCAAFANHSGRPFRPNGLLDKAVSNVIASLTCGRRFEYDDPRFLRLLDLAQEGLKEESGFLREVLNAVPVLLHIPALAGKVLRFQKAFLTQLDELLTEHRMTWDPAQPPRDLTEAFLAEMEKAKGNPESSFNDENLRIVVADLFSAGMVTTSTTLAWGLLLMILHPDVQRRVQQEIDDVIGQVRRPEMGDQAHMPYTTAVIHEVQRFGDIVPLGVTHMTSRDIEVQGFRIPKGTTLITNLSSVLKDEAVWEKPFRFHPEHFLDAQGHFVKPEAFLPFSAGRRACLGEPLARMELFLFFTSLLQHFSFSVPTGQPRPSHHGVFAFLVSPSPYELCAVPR
CYP2C9, sequence (P11712 whole entry): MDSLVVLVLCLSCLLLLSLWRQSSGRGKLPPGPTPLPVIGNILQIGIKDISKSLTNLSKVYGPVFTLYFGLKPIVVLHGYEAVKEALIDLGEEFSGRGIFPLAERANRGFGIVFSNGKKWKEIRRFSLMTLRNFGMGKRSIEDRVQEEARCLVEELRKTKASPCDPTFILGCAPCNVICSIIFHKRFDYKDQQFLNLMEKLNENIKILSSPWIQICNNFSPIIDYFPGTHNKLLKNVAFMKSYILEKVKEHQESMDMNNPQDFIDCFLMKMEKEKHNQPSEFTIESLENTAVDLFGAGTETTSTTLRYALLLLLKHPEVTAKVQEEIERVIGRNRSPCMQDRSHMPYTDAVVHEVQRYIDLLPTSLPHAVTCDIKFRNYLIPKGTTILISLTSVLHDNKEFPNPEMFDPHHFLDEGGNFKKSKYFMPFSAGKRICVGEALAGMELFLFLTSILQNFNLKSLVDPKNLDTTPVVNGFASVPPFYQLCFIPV

COc1ccc(-c2coc3cc(OCC4CS4)ccc3c2=O)c(OC)c1 (stereo not shown) [NA49]
In vitro Metabolic Stability (% of remaining after 30 min) [1]: 5.0 ± 1.33% | IC50 [2]: 19.2 µM | IC50 [3]: > 50 µM | IC50 [4]: 38.1 ± 0.69 µM | IC50 [5]: 62.5 ± 0.9 µM | IC50 [6]: 64.4 ± 2.31 µM | IC50 [7]: 73 ± 2.66 µM | IC50 [8]: 62.9 ± 1.58 µM | IC50 [9]: 89.4 ± 2.57 µM | CI value (combination index) ([10]; NA 10 µM + cisplatin 3 µM): 0.942 | CI value (combination index) ([10]; NA 20 µM + cisplatin 3 µM): 0.969 | CI value (combination index) ([11]; NA 10 µM + cisplatin 5 µM): 0.698 | CI value (combination index) ([11]; NA 20 µM + cisplatin 5 µM): 0.823 | CI value (combination index) [12]: 0.651 | CI value (combination index) [13]: 1.84 | CI value (combination index) ([14]; NA 10 µM + gefitinib 10 µM): 0.828 | CI value (combination index) ([14]; NA 10 µM + gefitinib 20 µM): 0.487 | CI value (combination index) [15]: 0.392 | HSP27 cross-linking activity (altered dimerization) [16]: slightly less than J2 | Tumor growth, combination with NA49 compared to cisplatin alone [17]: greater reduction in tumor growth | Tumor growth, combination with NA49 compared to Gef alone [18]: greater reduction in tumor growth

Cc1cc(=O)c2c(O)cc(OCC3CS3)cc2o1 (stereo not shown) [J2]
In vitro Metabolic Stability (% of remaining after 30 min) [1]: 2.6 ± 0.45% | IC50 [2]: > 50 µM | IC50 [3]: > 50 µM | HSP27 cross-linking activity (altered dimerization) [16]: altered dimerization was detected
